Results: ChEMBL document CHEMBL3272130, “Synthesis and hypotensive activity of some cyclopentano-1,2,3,4-tetrahydroisoquinolines” (J Med Chem, 1977)

Assays:
[1] = tested on: Rattus norvegicus; experiment: Cardiovascular activity in deoxycorticosterone acetate treated hypertensive CD rat assessed as change in heart rate at 20 mg, ip after 4 hrs relative to control; assay type: ADME, organism-based; conditions: in vivo
[2] = tested on: Rattus norvegicus; experiment: Cardiovascular activity in deoxycorticosterone acetate treated hypertensive CD rat assessed as change in heart rate at 10 mg, ip after 1 hr relative to control; assay type: ADME, organism-based; conditions: in vivo
[3] = tested on: Rattus norvegicus; experiment: Hypotensive activity in deoxycorticosterone acetate treated hypertensive CD rat assessed as change in blood pressure at 10 mg, ip after 1 hr relative to control; assay type: functional
[4] = tested on: Rattus norvegicus; experiment: Hypotensive activity in deoxycorticosterone acetate treated hypertensive CD rat assessed as change in blood pressure at 10 mg, ip after 24 hrs relative to control; assay type: functional
[5] = tested on: Rattus norvegicus; experiment: Hypotensive activity in deoxycorticosterone acetate treated hypertensive CD rat assessed as change in blood pressure at 50 mg, ip after 24 hrs relative to control; assay type: functional
[6] = tested on: Rattus norvegicus; experiment: Cardiovascular activity in deoxycorticosterone acetate treated hypertensive CD rat assessed as change in heart rate at 20 mg, ip after 2 hrs relative to control; assay type: ADME, organism-based; conditions: in vivo
[7] = tested on: Rattus norvegicus; experiment: Hypotensive activity in deoxycorticosterone acetate treated hypertensive CD rat assessed as change in blood pressure at 20 mg, ip after 2 hrs relative to control; assay type: functional
[8] = tested on: Rattus norvegicus; experiment: Cardiovascular activity in deoxycorticosterone acetate treated hypertensive CD rat assessed as change in heart rate at 10 mg, ip after 4 hrs relative to control; assay type: ADME, organism-based; conditions: in vivo
[9] = tested on: Rattus norvegicus; experiment: Hypotensive activity in deoxycorticosterone acetate treated hypertensive CD rat assessed as change in blood pressure at 20 mg, ip after 24 hrs relative to control; assay type: functional
[10] = tested on: Rattus norvegicus; experiment: Hypotensive activity in deoxycorticosterone acetate treated hypertensive CD rat assessed as change in blood pressure at 20 mg, ip after 1 hr relative to control; assay type: functional
[11] = tested on: Rattus norvegicus; experiment: Cardiovascular activity in deoxycorticosterone acetate treated hypertensive CD rat assessed as change in heart rate at 50 mg, ip after 24 hrs relative to control; assay type: ADME, organism-based; conditions: in vivo
[12] = tested on: Rattus norvegicus; experiment: Cardiovascular activity in deoxycorticosterone acetate treated hypertensive CD rat assessed as change in heart rate at 20 mg, ip after 24 hrs relative to control; assay type: ADME, organism-based; conditions: in vivo
[13] = tested on: Rattus norvegicus; experiment: Cardiovascular activity in deoxycorticosterone acetate treated hypertensive CD rat assessed as change in heart rate at 10 mg, ip after 24 hrs relative to control; assay type: ADME, organism-based; conditions: in vivo
[14] = tested on: Rattus norvegicus; experiment: Hypotensive activity in deoxycorticosterone acetate treated hypertensive CD rat assessed as change in blood pressure at 20 mg, ip after 4 hrs relative to control; assay type: functional
[15] = tested on: Rattus norvegicus; experiment: Cardiovascular activity in deoxycorticosterone acetate treated hypertensive CD rat assessed as change in heart rate at 10 mg, ip after 2 hrs relative to control; assay type: ADME, organism-based; conditions: in vivo
[16] = tested on: Rattus norvegicus; experiment: Hypotensive activity in deoxycorticosterone acetate treated hypertensive CD rat assessed as change in blood pressure at 10 mg, ip after 2 hrs relative to control; assay type: functional
[17] = tested on: Rattus norvegicus; experiment: Hypotensive activity in deoxycorticosterone acetate treated hypertensive CD rat assessed as change in blood pressure at 10 mg, ip after 4 hrs relative to control; assay type: functional
[18] = Toxicity in ip dosed Swiss-Webster mouse after 24 hrs; assay type: organism-based; conditions: in vivo
[19] = tested on: Rattus norvegicus; experiment: Cardiovascular activity in deoxycorticosterone acetate treated hypertensive CD rat assessed as change in heart rate at 20 mg, ip after 1 hr relative to control; assay type: ADME, organism-based; conditions: in vivo
[20] = tested on: Rattus norvegicus; experiment: Hypotensive activity in deoxycorticosterone acetate treated hypertensive CD rat assessed as change in blood pressure at 50 mg, ip after 4 hrs relative to control; assay type: functional
[21] = tested on: Rattus norvegicus; experiment: Cardiovascular activity in deoxycorticosterone acetate treated hypertensive CD rat assessed as change in heart rate at 50 mg, ip after 2 hrs relative to control; assay type: ADME, organism-based; conditions: in vivo
[22] = tested on: Rattus norvegicus; experiment: Cardiovascular activity in deoxycorticosterone acetate treated hypertensive CD rat assessed as change in heart rate at 50 mg, ip after 4 hrs relative to control; assay type: ADME, organism-based; conditions: in vivo
[23] = tested on: Rattus norvegicus; experiment: Hypotensive activity in deoxycorticosterone acetate treated hypertensive CD rat assessed as change in blood pressure at 50 mg, ip after 1 hr relative to control; assay type: functional
[24] = tested on: Rattus norvegicus; experiment: Cardiovascular activity in deoxycorticosterone acetate treated hypertensive CD rat assessed as change in heart rate at 50 mg, ip after 1 hr relative to control; assay type: ADME, organism-based; conditions: in vivo
[25] = tested on: Rattus norvegicus; experiment: Hypotensive activity in deoxycorticosterone acetate treated hypertensive CD rat assessed as change in blood pressure at 50 mg, ip after 2 hrs relative to control; assay type: functional
[26] = tested on: Rattus norvegicus; experiment: Hypotensive activity in deoxycorticosterone acetate treated hypertensive CD rat assessed as change in blood pressure at 100 mg, ip after 4 hrs relative to control; assay type: functional
[27] = tested on: Rattus norvegicus; experiment: Cardiovascular activity in deoxycorticosterone acetate treated hypertensive CD rat assessed as change in heart rate at 100 mg, ip after 2 hrs relative to control; assay type: ADME, organism-based; conditions: in vivo
[28] = tested on: Rattus norvegicus; experiment: Hypotensive activity in deoxycorticosterone acetate treated hypertensive CD rat assessed as change in blood pressure at 100 mg, ip after 24 hrs relative to control; assay type: functional
[29] = tested on: Rattus norvegicus; experiment: Cardiovascular activity in deoxycorticosterone acetate treated hypertensive CD rat assessed as change in heart rate at 100 mg, ip after 4 hrs relative to control; assay type: ADME, organism-based; conditions: in vivo
[30] = tested on: Rattus norvegicus; experiment: Hypotensive activity in deoxycorticosterone acetate treated hypertensive CD rat assessed as change in blood pressure at 100 mg, ip after 2 hrs relative to control; assay type: functional
[31] = tested on: Rattus norvegicus; experiment: Cardiovascular activity in deoxycorticosterone acetate treated hypertensive CD rat assessed as change in heart rate at 100 mg, ip after 1 hr relative to control; assay type: ADME, organism-based; conditions: in vivo
[32] = tested on: Rattus norvegicus; experiment: Cardiovascular activity in deoxycorticosterone acetate treated hypertensive CD rat assessed as change in heart rate at 100 mg, ip after 24 hrs relative to control; assay type: ADME, organism-based; conditions: in vivo
[33] = tested on: Rattus norvegicus; experiment: Hypotensive activity in deoxycorticosterone acetate treated hypertensive CD rat assessed as change in blood pressure at 100 mg, ip after 1 hr relative to control; assay type: functional

Row | Compound | Activity [1] [%] | Activity [5] [%] | Activity [6] [%] | Activity [7] [%] | Activity [9] [%] | Activity [10] [%] | Activity [11] [%] | Activity [12] [%] | Activity [14] [%] | LD50 at 24 h [18] [mg/kg] | Activity [19] [%] | Activity [20] [%] | Activity [21] [%] | Activity [22] [%] | Activity [23] [%] | Activity [24] [%] | Activity [25] [%] | also measured
1 | COc1c2c(c3c(c1OC)CNCC3)CCC2 | 11 | -16.8 | 16.9 | -4 | -0.2 | -3.9 | -3.8 | 7.4 | -3.9 | 79 | 10.2 |  |  |  |  |  |  | Activity [2]: 5.8%; Activity [3]: -3.1%; Activity [4]: -7.2%; Activity [8]: 3.9%; Activity [13]: -9.1%; Activity [15]: 8.1%; Activity [16]: -3.4%; Activity [17]: -14.2%
2 | Br.COc1c2c(c3c(c1OC)CN(C)CC3)CCC2 | 8.5 | -4.6 | 9.2 | 5.5 | -2.9 | 6.3 | -3.8 | 1.5 | -4.2 | 100 | 3.5 | -6.3 | -4.4 | 1.6 | -3 | -8.7 | -2.9 | 
3 | Br.CCC(C)CN1CCc2c3c(c(OC)c(OC)c2C1)CCC3 (stereo not given) | 3.4 |  | 7.3 | -8.1 | -1.6 | -13.1 |  | -5.5 | -7 | 100 | 7.8 |  |  |  |  |  |  | Activity [2]: 3.6%; Activity [3]: -12.2%; Activity [4]: -2.6%; Activity [8]: -4.3%; Activity [13]: -2.4%; Activity [15]: -4.2%; Activity [16]: -1.9%; Activity [17]: 0.7%
4 | COc1ccc(C(=O)N2CCc3c4c(c(OC)c(OC)c3C2)CCC4)cc1OC | 2.2 |  | 8.9 | -1.4 | 5.6 | -4 |  | 5.7 | -3.1 | 150 | 3.8 |  |  |  |  |  |  | 
5 | COc1ccc(CN2CCc3c4c(c(OC)c(OC)c3C2)CCC4)cc1OC.Cl |  | 0.9 |  |  |  |  | -1.3 |  |  | 141 |  | -0.7 | 9 | 10.2 | -8.8 | 13 | -4.2 | 
6 | COc1ccc(CC(=O)N2CCc3c4c(c(OC)c(OC)c3C2)CCC4)cc1OC | 1.3 |  | 1.8 | -3.9 | -3.1 | 5.4 |  | -6.7 | -6.3 | 160 | 1.9 |  |  |  |  |  |  | 
7 | Br.COc1ccc(CCN2CCc3c4c(c(OC)c(OC)c3C2)CCC4)cc1OC |  | -2.8 |  |  |  |  | 2.4 |  |  | 125 |  | -6.6 | 17.6 | 5.4 | -26 | 22 | -11.3 | 
8 | COc1c2c(c3c(c1OC)CN(CC(c1ccccc1)c1ccccc1)CC3)CCC2 | 0.8 |  | 10.7 | 1.1 | -3 | 1.4 |  | -5 | -2.9 | > 1000 | 7.4 |  |  |  |  |  |  | Activity [26]: -11.2%; Activity [27]: 2.4%; Activity [28]: -3.6%; Activity [29]: 2.4%; Activity [30]: -12.7%; Activity [31]: 8.7%; Activity [32]: -2.4%; Activity [33]: -10.7%
9 | COc1c2c(c3c(c1OC)CN(C(=O)CC(c1ccccc1)c1ccccc1)CC3)CCC2 | 2.4 |  | 15.8 | -6.9 | -2.1 | -4.4 |  | -1.8 | -5 | 100 | 16.8 |  |  |  |  |  |  | 
10 | COc1c2c(c3c(c1OC)CN(CCC(c1ccccc1)c1ccccc1)CC3)CCC2 |  |  |  |  |  |  |  |  |  | 1000 |  |  |  |  |  |  |  | Activity [26]: -6.7%; Activity [27]: 4.6%; Activity [28]: -7%; Activity [29]: 0.8%; Activity [30]: -7.9%; Activity [31]: 4%; Activity [32]: 0.6%; Activity [33]: -3.5%
11 | Br.CN1CCc2c(c(O)c(O)c3c2CCC3)C1 |  | -3.6 |  |  |  |  | 3 |  |  | 150 |  | 3 | 4.8 | 4.1 | -1.1 | 8.2 | 2.6 | 
12 | CC(=O)Oc1c2c(c3c(c1OC(C)=O)CN(C)CC3)CCC2.O=C(O)C(F)(F)F |  | -5.1 |  |  |  |  | 0.3 |  |  | 200 |  | -0.6 | 7.3 | 2.6 | -13.1 | 14.6 | 5.2 | 
13 | COc1ccc(C(=O)N2CCc3c(c4c(c(OC)c3OC)CCC4)C2)cc1OC |  |  |  |  |  |  |  |  |  | > 1000 |  |  |  |  |  |  |  | Activity [26]: -3.4%; Activity [27]: 3.4%; Activity [28]: -6%; Activity [29]: -1.2%; Activity [30]: -8.8%; Activity [31]: 0.2%; Activity [32]: -6.5%; Activity [33]: -12.1%
14 | Br.COc1ccc(CN2CCc3c(c4c(c(OC)c3OC)CCC4)C2)cc1OC |  | 3.3 |  |  |  |  | -9.1 |  |  | 200 |  | -1 | 0.4 | 1 | -8.4 | 0.4 | -2.4 | 
15 | COc1ccc(CC(=O)N2CCc3c(c4c(c(OC)c3OC)CCC4)C2)cc1OC |  |  |  |  |  |  |  |  |  | 500 |  |  |  |  |  |  |  | 
16 | Br.COc1ccc(CCN2CCc3c(c4c(c(OC)c3OC)CCC4)C2)cc1OC |  |  |  |  |  |  |  |  |  | 100 |  |  |  |  |  |  |  | 
17 | COc1c2c(c3c(c1OC)CCN(C(=O)C(c1ccccc1)c1ccccc1)C3)CCC2 |  |  |  |  |  |  |  |  |  | 200 |  |  |  |  |  |  |  | 
18 | COc1c2c(c3c(c1OC)CCN(CC(c1ccccc1)c1ccccc1)C3)CCC2 |  |  |  |  |  |  |  |  |  | > 1000 |  |  |  |  |  |  |  | Activity [26]: -2%; Activity [27]: 25.4%; Activity [28]: 4%; Activity [29]: 8.6%; Activity [30]: -3.4%; Activity [31]: 18.5%; Activity [32]: -0.5%; Activity [33]: -5%
19 | Br.CN1CCc2c(O)c(O)c3c(c2C1)CCC3 |  | -8.6 |  |  |  |  | -8.6 |  |  | 160 |  | -5.7 | 5.1 | 4.6 | -9.1 | -1.9 | -3.5 | 
20 | CC(=O)Oc1c2c(c3c(c1OC(C)=O)CCN(C)C3)CCC2 |  |  |  |  |  |  |  |  |  | 150 |  |  |  |  |  |  |  | 
21 | C[C@](N)(Cc1ccc(O)c(O)c1)C(=O)O [METHYLDOPA] |  | -16.5 |  |  |  |  | -19.3 |  |  |  |  | -47.7 | 104.1 | 31 | -31 | 106.2 | -50 | 
